Patent publication US20230103444A1 (The Regents of the University of Colorado, a Body Corporate, priority 2020, published 2023)
“Also recorded” adds a separate entry of the source. Read-outs that look alike come from different tables or passages of the source.

How the values were obtained:
[1] = system: E-cadherin promoter activity; experiment: EcadPro-RFP reporter 3D high-content imaging in tumor organoids; assay type: cell-based; details: 72 h; for EC50: Homo sapiens, SW-620, read-out: EC50 upregulation of E-cadherin promoter activity, SW620 tumor organoids
Method: After validating hits 5-7 against CHD1L mediated TCF transcription, the ability of these compounds to reverse EMT and other malignant properties in CRC were evaluated. E-cadherin and vimentin are putative biomarkers for the epithelial and mesenchymal phenotypes, respectively. [McDonald et al., 2015] Loss of E-cadherin and gain of vimentin are also clinical biomarkers of poor prognosis. [Yun et al., 2014; Richardson et al., 2012; Dhanasekaran et al., 2001; Kashiwagi et al., 2010; Toiyama et al., 2013] Accordingly, lentiviral promoter driven reporters for E-cadherin (pCDH1-EcadPro-RFP) and vimentin (pCDH1-VimPro-GFP) were developed, which faithfully report E-cadherin and vimentin protein expression, respectively. [Zhou et al., 2016; Abraham et al., 2019] SW620 cells transduced with either EcadPro-RFP or VimPro-GFP were cultured as tumor organoids for 72 h, reaching a diameter of 600 μm. Tumor organoids were treated with compounds 5-7 for an additional 72 h to determine the effective concentration 50 percent (EC50) for modulating promoter activity. Changes in promoter expression was quantified using a 3D confocal image […] based high-content analysis algorithm (FIG. 2A-2B). [Zhou et al., 2016; Abraham et al., 2019]
CHD1L has been reported to confer anti-apoptotic activity by inhibiting activation of caspase-dependent apoptosis. [Li et al., 2013; Sun et al., 2016] Additionally, reversal or inhibition of EMT is known to restore apoptotic activity of cancer cells. [Lu et al., 2014] To determine if CHD1L inhibitors reverse EMT prior to induction of cell death, E-cadherin expression by EcadPro-RFP reporter activity was monitored and cytotoxicity was measured using the CellTox™ Green assay. Cells were treated with CHD1L inhibitors for 72 h and imaged every 2 h.
Stable VimPro-GFP or EcadPro-RFP SW620 reporter cells were generated using pCDH imPro-GFP-EF1-puro virus or pCDH-EcadPro-mCherry-EF1-puro virus as previously reported. [Zhou et al., 2016; Abraham et al., 2019] The stable fluorescently labeled reporter cells were used to generate tumor organoids as described herein. Tumor organoids were treated with CHD1L inhibitors at 10 μM for an additional 72 h. Following treatment, tumor organoids were stained with 16 μM of Hoechst 33342 for 1 h (nuclei stain). Images were taken with a 5× air objective. Z-stacks were set at 26.5 μm apart for a total of 15 optical slices. Imaging and high-content analysis were performed using an Opera Phenix™ and Harmony® software (PerkinElmer, Hopkinton, Mass.). Nuclei were identified within each layer and cells were found with either GFP or mCherry channel. The fluorescence intensities of each channel were calculated and thresholds were set based on the background intensities. Percentages of GFP or mCherry RFP positive cells were calculated and normalized to the DMSO treated group.
3D High-Content Imaging and Analysis of EMT Dual-Reporter Activity. Tumor organoids were imaged using the Opera Phenix high-content screening system (PerkinElmer) in confocal mode utilizing a 10× air objective (NA 0.3). The following excitation and emission (Ex/Em) wavelengths were employed: RFP (561/570-630) and GFP (488/500-550). Organoids were also imaged in Brightfield to segment and perform high-content analysis of dual reporter specific fluorescence intensity. RFP fluorescent signal correlates with E-Cadherin promoter activity, while GFP fluorescent signal is correlates with vimentin promoter activity. Both fluorescent signals were quantified and normalized as previously described. (Esquer, et al., 2021)

[2] = system: HCT-116 and DLD1CHD1L-OE cells; experiment: Clonogenic colony formation after 24 h pretreatment (CSC stemness); assay type: cell-based, human; details: colonies over 10 days
Method: To assess CHD1L inhibitors for their ability to suppress CSC stemness, HCT-116 or CHD1L overexpressing DLD1 cell lines were pre-treated in monolayer cultures for 24 h with vehicle control (0.5% DMSO) or CHD1L inhibitors at the concentrations indicated in FIG. 2C. Pretreated viable cells were plated at 1,000 cells/well in 6-well plates or 200 cells/well in a 24-well plates. Colonies were analyzed using the IncuCyte® S3 2018A (Sartorius, France) software (with the following parameters modified from default: (1) for HCT116 cells segmentation adjustment=0.6; Min area (μm2)=3×104; Max area (μm2)=1.6×106; Max eccentricity=0.9; (2) for DLD1CHD1L OE cells segmentation adjustment=1; Min area (μm2)=1×104; Max area was not constrained; Max eccentricity=0.95. Experiments were replicated 2× (n=2 for each experiment).

HCT116 cells = experiment: Invasion assay (scratch wound in Matrigel); assay type: cell-based, human; details: 50% Matrigel, 48-72 h
Method: A hallmark of EMT is an increase in CSC stemness and cell invasion. Therefore, the ability of compounds 5-7 to inhibit migration and invasion in HCT-116 and DLD1^CHD1L-OE cells was tested. […] Note that DLD1^CHD1L-OE cells form two times more colonies than HCT-116 cells, which have moderate CHD1L expression. This observation is consistent with CHD1L's oncogenic and tumorigenic properties. Next, using HCT-116 cells with uniform scratch wounds imbedded in 50% Matrigel® matrix (Corning Life Sciences, Corning, N.Y.) cells were treated with CHD1L inhibitors at concentrations indicated and invasion was monitored over 72 h.
HCT116 cells were plated at 60,000 cells/well into an IncuCyte® ImageLock 96-well plate (Sartorius, France) and allowed to attach overnight. A wound was created in all wells using the IncuCyte® WoundMaker then washed 2× with PBS. The plate was brought to 4° C. using a Corning XT Cool Core to avoid polymerization of the Matrigel® matrix (Corning Life Sciences, Corning, N.Y.) during the preparation of the invasion conditions. Wells were coated with 50 μL of 50% Matrigel® matrix in RPMI-1640 media. Plates were centrifuged at 150 rpm at 4° C. for 3 min, using a swing bucket rotor to ensure even matrix coating with no air bubbles. […]

HCT116 tumor organoids = experiment: Tumor organoid cytotoxicity (CellTiter-Glo 3D); assay type: cell-based, human; details: Homo sapiens
Method: Cell based cytotoxicity dose response and combination studies. […] Plates were then incubated for 3 days before treatment.
Cell Line Tumor Organoid Culture.
Tumor Organoid Cytotoxicity.

[3] = HCT-116, single agent, Table 4A, read-out: Tumor Organoid Cytotoxicity IC50 (μM) HCT116

Structure (SMILES) | EC50 [1] [µM] | inhibition of CSC stemness (clonogenic colony formation), in words [2] | E-cadherin expression before onset of cytotoxicity ([1]; EcadPro-RFP reporter and CellTox Green, imaged every 2 h, relative to DMSO) | inhibition of CSC stemness (clonogenic colony formation), in words ([2]; listed as 6.0) | inhibition of invasion, in words (HCT116 cells; listed as 6.0) | IC50 (HCT116 tumor organoids; [3]) [µM] | upregulation of E-cadherin promoter activity (EcadPro-RFP), in words ([1]; SW620 or HCT116 tumor organoids) | inhibition of invasion, in words (HCT116 cells) | IC50 (HCT116 tumor organoids; HCT-116, 72 h, Table 6, read-out: 3 D Cytotoxicity 72 hr IC50 (μM) HCT116) [µM]
COc1ccc(-c2nc(S(=O)(=O)c3ccccc3)c(S(C)(=O)=O)o2)cc1 [Compound 5] | 11.9 ± 0.3 | more potent dose dependent inhibition | – | – | – | – | – | – | –
Cc1cc(Nc2ccc(NC(=O)Cc3cccs3)cc2)nc(N2CCCC2)n1 [Compound 6, N-(4-((6-methyl-2-(pyrrolidin-1-yl)pyrimidin-4-yl)amino)phenyl)-2-(thiophen-2-yl)acetamide] | 11.4 ± 0.3 | – | significant increase in E-cadherin expression prior to induction of cytotoxicity | more potent dose dependent inhibition; also recorded: significantly inhibits CSC stemness | most potent activity | 4.93 | – | – | –
Cc1cc(Nc2ccc(NC(=O)c3c[nH]c4ccccc34)cc2)nc(N2CCCC2)n1 [Compound 6.3, N-(4-((6-methyl-2-(pyrrolidin-1-yl)pyrimidin-4-yl)amino)phenyl)-1H-indole-3-carboxamide] | – | significantly inhibits clonogenic colony formation | – | – | – | 3.72 | upregulation of E-cadherin promoter activity | significantly inhibits HCT116 invasive potential | 3.7
